Measured values published in patent publication US20100093864A1, “ANTI-INFECTIVE THIOUREA COMPOUNDS” (LICA PHARMACEUTICALS, priority 2006, published 2010).
≈ marks a conversion by molar mass, not a printed value. Like-named read-outs stand apart in the source and are kept apart here.

How the values were obtained:
Staphylococcus aureus = test: Antibacterial screening (MIC), broth microdilution assay; format: cell-based; conditions: read-out: MIC Staph. aureus
Procedure: An initial screening for in vitro activity was conducted in a broth microtiter assay. The synthesized compounds were assayed against several […] such as Staphylococcus aureus and 2 different strains of E. coli (including a type strain and an antibiotic-susceptible strain). Following initial screening MICs were determined.
Staphylococcus aureus ATCC29213 Staphylococcus aureus ATCC33591 (MRSA) Eschericia coli ATCC25922 Eschericia coli ESS
The screening was performed with test compounds in 4 different concentrations.
MICs for ATCC type strains fall within the limits posted by the NCCLS (M100-S11) when tested against Vancomycin, Tetracycline and Gentamycin.

erythrocyte = test: Erythrocyte hemolysis assay; format: cell-based; conditions: for 50% Haemolysis: concentration giving 50% haemolysis
[1] = tested on: MCF7 cells (ATCC: HTB 22); test: MTT assay on MCF7 cells; format: cell-based
Excerpt: The cytotoxicity effect of the compounds at different exposure times as a function of concentration has been tested in an erythrocyte hemolysis assay as well as an MTT assay on MCF7 cells (ATCC: HTB 22).

[2] = target: bovine serum albumin (BSA) (Bos taurus, UniProt P02769); test: Protein binding bioassay: MICs in presence or absence of 40 mg/ml BSA; format: in vitro ADME; conditions: MICs with or without 40 mg/ml BSA
Sequence of bovine serum albumin (BSA) (P02769 25-607): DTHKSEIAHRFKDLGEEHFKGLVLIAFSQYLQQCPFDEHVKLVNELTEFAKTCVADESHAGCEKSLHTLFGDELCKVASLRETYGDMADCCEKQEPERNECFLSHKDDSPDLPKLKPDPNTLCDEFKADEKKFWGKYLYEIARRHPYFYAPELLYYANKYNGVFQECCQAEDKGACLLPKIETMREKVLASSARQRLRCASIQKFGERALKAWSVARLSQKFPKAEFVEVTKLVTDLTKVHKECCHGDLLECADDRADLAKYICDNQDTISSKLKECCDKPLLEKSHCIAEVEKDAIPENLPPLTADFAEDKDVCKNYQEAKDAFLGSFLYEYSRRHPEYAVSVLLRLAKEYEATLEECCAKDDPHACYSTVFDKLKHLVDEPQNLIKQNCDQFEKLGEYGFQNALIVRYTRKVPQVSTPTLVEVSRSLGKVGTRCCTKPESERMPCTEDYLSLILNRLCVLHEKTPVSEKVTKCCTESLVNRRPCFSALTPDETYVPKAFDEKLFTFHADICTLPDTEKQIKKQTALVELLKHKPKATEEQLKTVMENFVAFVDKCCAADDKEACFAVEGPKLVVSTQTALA
Procedure: Protein binding was performed using a bioassay determining MICs in the presence or absence of 40 mg/ml bovine serum albumin (BSA).

[3] = Staphylococcus aureus, broth microdilution per NCCLS M7-A5, strain not given

| SMILES | MIC (Staphylococcus aureus; broth microdilution per NCCLS M7-A5, strain not given) [µM] | Haemolysis 4x MIC (erythrocyte; at 4x MIC) [%] | 50% Haemolysis (erythrocyte) [µM] | MTT [1] [µM] | MIC (Staphylococcus aureus; [3]) [µM] | fraction unbound [2] | Haemolysis 4x MIC (erythrocyte; 4 x MIC) [%] | MIC (Staphylococcus aureus; Staphylococcus aureus) [µM] |
| --- | --- | --- | --- | --- | --- | --- | --- | --- |
| O=C(O)c1cn(C2CC2)c2cc(N3CCNCC3)c(F)cc2c1=O [Ciprofloxicin, reference compound] | 1.5 (≈ 0.497 µg/mL) | 0 | 150 | >100 |  |  |  |  |
| FC(F)(F)c1cc(NC(=S)NCc2cccc(Cl)c2)cc(C(F)(F)F)c1 [Compound A, 1-(3,5-Bis-trifluoromethyl-phenyl)-3-(3-chloro-benzyl)-thiourea] |  | <1 | 75 | 150 | 0.6 (≈ 0.248 µg/mL) | 0.02 |  |  |
| FC(F)(F)c1cc(NC(=S)NCc2ccc(Cl)cc2Cl)cc(C(F)(F)F)c1 [Compound B, 1-(3,5-Bis-trifluoromethyl-phenyl)-3-(2,4-dichloro-benzyl)-thiourea] |  | <1 | 150 | 150 |  | < 0.02 |  |  |
| CC(NC(=S)Nc1cc(C(F)(F)F)cc(C(F)(F)F)c1)c1ccc(Br)cc1 (stereo not shown) [Compound C, 1-(3,5-Bis-trifluoromethyl-phenyl)-3-[1-(4-bromo-phenyl)-ethyl]-thiourea] |  | 15 | 37.5 |  | 0.3 (≈ 0.141 µg/mL) | 0.02 |  |  |
| FC(F)(F)c1cc(NC(=S)NCCc2ccc(Cl)cc2Cl)cc(C(F)(F)F)c1 [Compound D, 1-(3,5-Bis-trifluoromethyl-phenyl)-3-[2-(2,4-dichloro-phenyl)-ethyl]-thiourea] |  |  |  | 150 | 0.3 (≈ 0.138 µg/mL) | 0.02 |  |  |
| FC(F)(F)c1cc(NC(=S)NCCOc2ccc(Cl)c(Cl)c2)cc(C(F)(F)F)c1 [Compound E, 1-(3,5-Bis-trifluoromethyl-phenyl)-3-[2-(3,4-dichloro-phenoxy)-ethyl]-thiourea] |  |  | 18.8 |  | 0.3 (≈ 0.143 µg/mL) | 0.02 |  |  |
| FC(F)(F)c1cc(NC(=S)NCc2ccc(Cl)cc2)cc(C(F)(F)F)c1 [Compound F, 1-(3,5-Bis-trifluoromethyl-phenyl)-3-(4-chloro-benzyl)-thiourea] |  | <1 | 150 | 150 |  | < 0.03 |  |  |
| FC(F)(F)c1cc(NC(=S)NCCc2cccc(Cl)c2)cc(C(F)(F)F)c1 [Compound G, 1-(3,5-Bis-trifluoromethyl-phenyl)-3-[2-(3-chloro-phenyl)-ethyl]-thiourea] |  | 0 | 75 | 150 | 0.6 (≈ 0.256 µg/mL) | < 0.03 |  |  |
| Cc1onc(-c2c(Cl)cccc2Cl)c1C(=O)N[C@@H]1C(=O)N2[C@@H]1SC(C)(C)[C@@H]2C(=O)O [Dicloxacillin, reference compound] |  |  | 150 | >100 | 0.5 (≈ 0.235 µg/mL) |  | 0 |  |
| CN[C@H](CC(C)C)C(=O)N[C@H]1C(=O)N[C@@H](CC(N)=O)C(=O)N[C@H]2C(=O)N[C@H]3C(=O)N[C@H](C(=O)N[C@H](C(=O)O)c4cc(O)cc(O)c4-c4cc3ccc4O)[C@H](O)c3ccc(c(Cl)c3)Oc3cc2cc(c3O[C@@H]2O[C@H](CO)[C@@H](O)[C@H](O)[C@H]2O[C@H]2C[C@](C)(N)[C@H](O)[C@H](C)O2)Oc2ccc(cc2Cl)[C@H]1O [Vancomycin, reference compound] |  | 0 | 150 | >100 |  |  |  | 0.3 (≈ 0.435 µg/mL) |
